ChEMBL document CHEMBL1201862, “PubChem BioAssay data set” (2004)
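Interpolation was linear, between the two tested concentrations surrounding the appropriate level; five concentrations were tested over 48 hours in 96-well plates. GI50 marks 50% less growth.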 Activity calls are given as the source filed them. Rule as the data show it: active = GI50 up to about 1.1 µM and inactive = higher.

Columns and labels:
Assay in all cases: inhibition of tumour cell growth, NCI panel, 48 h
MDA-MB-231 = test system: MDA-MB-231
A498 = test system: A498
NCI-H226 = test system: NCI-H226
RPMI-8226 = test system: RPMI-8226
M14 = test system: M14
MOLT-4 = test system: MOLT-4
OVCAR-3 = test system: OVCAR-3
SF-295 = test system: SF-295
PC-3 = test system: PC-3
T47D = test system: T47D
NCI-H522 = test system: NCI-H522
Hs-578T = test system: Hs-578T
IGROV-1 = test system: IGROV-1
SK-MEL-5 = test system: SK-MEL-5
U-251 = test system: U-251
HCT-116 = test system: HCT-116
786-0 = test system: 786-0
NCI-H23 = test system: NCI-H23
CCRF-CEM = test system: CCRF-CEM
SF-539 = test system: SF-539
A549 = test system: A549
SW-620 = test system: SW-620
SK-MEL-2 = test system: SK-MEL-2
OVCAR-5 = test system: OVCAR-5
TK-10 = test system: TK-10
HOP-62 = test system: HOP-62
OVCAR-8 = test system: OVCAR-8
SR = test system: SR
HCT-15 = test system: HCT-15
UO-31 = test system: UO-31
CAKI-1 = test system: CAKI-1
UACC-257 = test system: UACC-257
BT-549 = test system: BT-549
COLO 205 = test system: COLO 205
MCF7 = test system: MCF7
Malme-3M = test system: Malme-3M
MDA-MB-435 = test system: MDA-MB-435
SF-268 = test system: SF-268
ACHN = test system: ACHN
MDA-N = test system: MDA-N
DU-145 = test system: DU-145
SNB-19 = test system: SNB-19
EKVX = test system: EKVX
KM12 = test system: KM12
HOP-92 = test system: HOP-92
HT-29 = test system: HT-29
HCC 2998 = test system: HCC 2998
UACC-62 = test system: UACC-62
K562 = test system: K562
NCI/ADR-RES = test system: NCI/ADR-RES
LOX IMVI = test system: LOX IMVI
SK-MEL-28 = test system: SK-MEL-28
RXF 393 = test system: RXF 393
SNB-75 = test system: SNB-75
OVCAR-4 = test system: OVCAR-4
HL-60 = test system: HL-60
SK-OV-3 = test system: SK-OV-3
SN12C = test system: SN12C

**Q.** Which GI50 (MDA-MB-231) does the source give for `CC(=O)OC(C)c1cc2c(s1)C(=O)c1ccsc1C2=O` (stereo not drawn) here?
**A.** 209 nM (active)

**Q.** What about the GI50 (A498) of the same molecule?
**A.** 1820 nM (inactive)

**Q.** And the GI50 (NCI-H226)?
**A.** 1610 nM (inactive)

**Q.** What about the GI50 (RPMI-8226) of the same molecule?
**A.** 82.6 nM (active)

**Q.** And the GI50 (M14)?
**A.** 129 nM (active)

**Q.** What about the GI50 (MOLT-4) of the same molecule?
**A.** 262 nM (active)

**Q.** And the GI50 (OVCAR-3)?
**A.** 40.5 nM (active)

**Q.** And the GI50 (SF-295)?
**A.** 113 nM (active)

**Q.** What about the GI50 (PC-3) of the same molecule?
**A.** 41 nM (active)

**Q.** And the GI50 (T47D)?
**A.** 437 nM (active)

**Q.** And the GI50 (NCI-H522)?
**A.** 149 nM (active)

**Q.** What about the GI50 (Hs-578T) of the same molecule?
**A.** 154 nM (active)

**Q.** And the GI50 (IGROV-1)?
**A.** 659 nM (active)

**Q.** And the GI50 (SK-MEL-5)?
**A.** 27.3 nM (active)

**Q.** And the GI50 (U-251)?
**A.** 165 nM (active)

**Q.** What about the GI50 (HCT-116) of the same molecule?
**A.** 226 nM (active)

**Q.** What about the GI50 (786-0) of the same molecule?
**A.** 286 nM (active)

**Q.** What about the GI50 (NCI-H23) of the same molecule?
**A.** 57.5 nM (active)

**Q.** What about the GI50 (CCRF-CEM) of the same molecule?
**A.** 204 nM (active)

**Q.** And the GI50 (SF-539)?
**A.** 52.8 nM (active)

**Q.** And the GI50 (A549)?
**A.** 1370 nM (inactive)

**Q.** And the GI50 (SW-620)?
**A.** 324 nM (active)

**Q.** And the GI50 (SK-MEL-2)?
**A.** 483 nM (active)

**Q.** What about the GI50 (OVCAR-5) of the same molecule?
**A.** 458 nM (active)

**Q.** And the GI50 (TK-10)?
**A.** 1220 nM (inactive)

**Q.** And the GI50 (HOP-62)?
**A.** 137 nM (active)

**Q.** What about the GI50 (OVCAR-8) of the same molecule?
**A.** 228 nM (active)

**Q.** What about the GI50 (SR) of the same molecule?
**A.** 74.8 nM (active)

**Q.** What about the GI50 (HCT-15) of the same molecule?
**A.** 124 nM

**Q.** And the GI50 (UO-31)?
**A.** 184 nM (active)

**Q.** What about the GI50 (CAKI-1) of the same molecule?
**A.** 895 nM (active)

**Q.** What about the GI50 (UACC-257) of the same molecule?
**A.** 28 nM (active)

**Q.** And the GI50 (BT-549)?
**A.** 167 nM (active)

**Q.** And the GI50 (COLO 205)?
**A.** 776 nM (active)

**Q.** What about the GI50 (MCF7) of the same molecule?
**A.** 51.3 nM (active)

**Q.** What about the GI50 (Malme-3M) of the same molecule?
**A.** 102 nM (active)

**Q.** And the GI50 (MDA-MB-435)?
**A.** 16.8 nM (active)

**Q.** What about the GI50 (SF-268) of the same molecule?
**A.** 213 nM (active)

**Q.** What about the GI50 (ACHN) of the same molecule?
**A.** 158 nM (active)

**Q.** And the GI50 (MDA-N)?
**A.** 20.6 nM (active)

**Q.** And the GI50 (DU-145)?
**A.** 118 nM (active)

**Q.** What about the GI50 (SNB-19) of the same molecule?
**A.** 166 nM (active)

**Q.** And the GI50 (EKVX)?
**A.** 773 nM (active)

**Q.** What about the GI50 (KM12) of the same molecule?
**A.** 169 nM (active)

**Q.** What about the GI50 (HOP-92) of the same molecule?
**A.** 372 nM (active)

**Q.** And the GI50 (HT-29)?
**A.** 170 nM (active)

**Q.** And the GI50 (HCC 2998)?
**A.** 451 nM (active)

**Q.** And the GI50 (UACC-62)?
**A.** 81.1 nM (active)

**Q.** What about the GI50 (K562) of the same molecule?
**A.** 131 nM (active)

**Q.** What about the GI50 (NCI/ADR-RES) of the same molecule?
**A.** 271 nM (active)

**Q.** And the GI50 (LOX IMVI)?
**A.** 11.7 nM (active)

**Q.** What about the GI50 (SK-MEL-28) of the same molecule?
**A.** 172 nM (active)

**Q.** And the GI50 (RXF 393)?
**A.** 206 nM (active)

**Q.** What about the GI50 (SNB-75) of the same molecule?
**A.** 148 nM (active)

**Q.** What about the GI50 (OVCAR-4) of the same molecule?
**A.** 664 nM (active)

**Q.** What about the GI50 (HL-60) of the same molecule?
**A.** 12.2 nM (active)

**Q.** What about the GI50 (SK-OV-3) of the same molecule?
**A.** 2070 nM (inactive)

**Q.** What about the GI50 (SN12C) of the same molecule?
**A.** 156 nM (active)
